{"source": "patent US10385034B2", "about": "“Flavonoid IL-17A inhibitors” (THE CLEVELAND CLINIC FOUNDATION, priority 2014, dated 2019)", "key": {"[1]": {"test_system": "IL-17F-induced gene expression", "assay": "IL-17F-induced gene expression in epithelial cells", "type": "cell-based, human", "details": "data not shown"}, "A549 cells": {"test_system": "A549 cells", "assay": "IL-17A-induced CXCL1 (Groα) production, ELISA", "type": "cell-based, human", "details": "A549, IL-17 100 ng/ml, 24 h", "description": "(§1) Reagents, cell culture and mice. Purified proteins of human IL-17A, human IL-17E (IL-25), human IL-17RA-Fc (extracellular domain 1-322 AA fused with Fc region of human IgG1 at the C-terminus), human IL-17RB-Fc (extracellular domain 1-289 AA fused with Fc region of human IgG1 at the C-terminus), human horseradish peroxidase (HRP)-conjugated IgG Fc secondary antibody were purchased from Sino Biological Inc. Human and mouse IL-17A and mouse IL-23 used for cell culture and animal injection were purchased from R&D Systems. Human mammary epithelial cells were maintained in Medium 171 plus mammary epithelial growth supplement (MEGS) purchased from Invitrogen, which contain bovine pituitary extract (BPE) (0.4% v/v), recombinant human insulin-like growth factor-I (1 μg/ml), hydrocortisone (0.5 μg/ml) and human epidermal growth factor (3 ng/ml). A549 cells were maintained in RPMI supplemented with 10% FCS and 100 U/ml penicillin and 100 μg/ml streptomycin. All mice were obtained from Jackson laboratory.\n(§2) ELISA. Groα and IL-17A levels were assayed by ELISA kits (R&D systems) according to the manufacturer's instruction."}, "IL-17A-IL-17RA binding": {"biological_target": "T1, IL-17A-IL-17RA binding (Homo sapiens, UniProt Q96F46)", "T1 construct": "human IL-17RA-Fc (extracellular domain 1-322 AA fused with Fc region of human IgG1 at the C-terminus); purchased Sino Biological Inc", "T1 sequence (Q96F46 33-322)": "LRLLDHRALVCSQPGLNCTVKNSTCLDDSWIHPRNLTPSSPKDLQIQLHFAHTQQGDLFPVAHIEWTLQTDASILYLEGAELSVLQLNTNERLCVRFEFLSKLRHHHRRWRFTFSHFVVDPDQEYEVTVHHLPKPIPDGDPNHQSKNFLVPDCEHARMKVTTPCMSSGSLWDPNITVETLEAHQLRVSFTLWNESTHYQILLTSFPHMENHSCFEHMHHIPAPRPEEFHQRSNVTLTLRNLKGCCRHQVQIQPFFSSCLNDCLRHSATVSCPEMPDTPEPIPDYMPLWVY", "assay": "IL-17A-IL-17RA binding assay (ELISA)", "details": "for IC50: in vitro inhibition assay; for Inhibition of IL-17A-IL-17RA binding: serial dilutions of compound", "description": "IL-17A-IL-17RA binding assay. ELISA plates were coated with human IL-17A or IL-17E (2 μg/ml in PBS). Human IL-17RA-Fc or human IL-17RB-Fc (150 ng/ml) were added and incubated for 1 h, followed by incubation with human HRP-conjugated anti human IgG Fc secondary antibody for 1 h. ELISA were finally developed using tetramethylbenzidine substrate."}, "[2]": {"biological_target": "T2, recombinant human IL-17RA ectodomain (Homo sapiens, UniProt Q96F46)", "T2 construct": "The recombinant human IL-17RA ectodomain was expressed in baculovirus-infected Sf-9 cells; made in house; host or cells: baculovirus-infected Sf-9 cells", "T2 sequence (Q96F46 33-320 limits assumed)": "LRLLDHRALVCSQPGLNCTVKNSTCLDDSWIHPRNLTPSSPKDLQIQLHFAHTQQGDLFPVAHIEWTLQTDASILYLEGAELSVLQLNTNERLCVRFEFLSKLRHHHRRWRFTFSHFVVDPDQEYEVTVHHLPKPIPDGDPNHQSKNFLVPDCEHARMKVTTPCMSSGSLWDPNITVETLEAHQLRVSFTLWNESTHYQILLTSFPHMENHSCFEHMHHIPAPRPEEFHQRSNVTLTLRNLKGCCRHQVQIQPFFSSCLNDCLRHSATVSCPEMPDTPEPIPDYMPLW", "assay": "Fluorescence binding measurement (fluorescence quenching)", "details": "one-site total binding fit", "description": "Fluorescence binding measurement. The recombinant human IL-17RA ectodomain was expressed in baculovirus-infected Sf-9 cells and purified as described previously. Liu et al., Nat Commun 4, 1888 (2013). The compound A18 or A0 was obtained from NCI. The purified IL-17RA protein (final concentration at 1 uM) was mixed with various concentrations of compound A0 in the solution consisting of 20 mM Tris, pH 7.5, 150 mM NaCl, and 5% DMSO in a 96-well black flat-bottom microplate (Greiner Bio-One). The reaction mixtures were incubated at room temperature at 120 rpm for 10 min, and fluorescence intensity was measured on a 2300 EnSpire Multimode Plate Reader (PerkinElmer) with excitation (265 nm) and emission (336 nm) wavelengths for A18 or with excitation (240 nm) and emission (337 nm) wavelengths for A0. The fluorescence signal (relative fluorescence intensity) was obtained by subtracting the background fluorescence of buffer and compound A0, and plotted as a function of the concentration of compound A0. The fluorescence quenching was observed as a consequence of the protein-ligand interaction at dose-dependent concentrations of compound A0, and the binding constant of compound A0 to IL-17RA was estimated by one-site total binding fit model (GraphPad Prism)."}, "[3]": {"test_system": "human mammary epithelial cells (HMEC)", "assay": "IL-17A-induced CXCL1 (Groα) production, ELISA", "type": "cell-based", "details": "IL-17 100 ng/ml, 24 h", "description": "as §1, §2"}, "psoriasis": {"test_system": "psoriasis", "details": "patients; cited from earlier work"}, "multiple sclerosis": {"test_system": "multiple sclerosis", "details": "6-month, placebo-controlled trial, 73 patients; cited from earlier work"}, "[4]": {"details": "read-out: IC50, IL-17A-IL-17RA binding inhibition assay"}, "[5]": {"details": "read-out: IC50, IL-17A-IL-17RA binding assay"}}, "note": "Entries after “also recorded” stand apart in the source; their conditions may differ. Read-outs that look alike come from different tables or passages of the source."}
{"molecule": "Oc1cc(O)c2c(c1)O[C@@H](c1ccc(O)c(O)c1)[C@H](O)C2", "note": "[A0, (2S,3R)-2-(3,4-dihydroxyphenyl)-3,4-dihydro-2H-chromene-3,5,7-triol]", "values": [{"measurement": "IL-17F-induced gene expression", "setting": "[1]", "value": "able to block"}, {"measurement": "IL-17A-mediated CXCL1 production", "setting": "A549 cells", "value": "greatly inhibited"}, {"measurement": "IC50", "setting": "IL-17A-IL-17RA binding; [4]", "value": 956, "unit": "nM"}, {"measurement": "Inhibition of IL-17A-IL-17RA binding", "setting": "IL-17A-IL-17RA binding", "value": "excellent inhibition efficacy; also recorded: great inhibition efficacy"}, {"measurement": "Binding constant to IL-17RA", "setting": "[2]", "value": "in the same range as A18"}, {"measurement": "IL-17A-mediated CXCL1 production", "setting": "[3]", "value": "greatly inhibited"}]}
{"molecule": "Oc1ccc2cc(O)c(-c3ccc(O)c(O)c3)[o+]c2c1", "note": "[A18Δ5OH]", "values": [{"measurement": "IC50", "setting": "IL-17A-IL-17RA binding; [5]", "value": "> 30000", "unit": "nM"}]}
{"molecule": "OC[C@H]1O[C@@H](Oc2cc3c(O)cc(O)cc3[o+]c2-c2ccc(O)c(O)c2)[C@H](O)[C@@H](O)[C@@H]1O", "note": "[cyanidin-3-O-glucoside, reference compound]", "values": [{"measurement": "IC50", "setting": "IL-17A-IL-17RA binding; [4]", "value": 96.4, "unit": "nM"}]}
{"molecule": "Oc1cc(O)c2ccc(-c3ccc(O)c(O)c3)[o+]c2c1", "note": "[luteolinidin, reference compound]", "values": [{"measurement": "IC50", "setting": "IL-17A-IL-17RA binding; [4]", "value": 198, "unit": "nM"}]}
{"molecule": "Oc1ccc(-c2[o+]c3cc(O)cc(O)c3cc2O)cc1", "note": "[pelargonidin, reference compound]", "values": [{"measurement": "IC50", "setting": "IL-17A-IL-17RA binding; [5]", "value": "> 100000", "unit": "nM"}]}
{"molecule": "O=C(O)c1ccc(O)c(O)c1", "note": "[photocatechuic acid, reference compound]", "values": [{"measurement": "Inhibition of IL-17A-IL-17RA binding", "setting": "IL-17A-IL-17RA binding", "value": "greatly reduced inhibitory activity"}]}
{"molecule": "secukinumab: Anti-IL17A antibody (Cosentyx/secukinumab from Novartis)", "values": [{"measurement": "Efficacy for psoriasis", "setting": "psoriasis", "value": "extreme efficacy"}, {"measurement": "Responding rate in psoriasis", "setting": "psoriasis", "value": "greater than 85%"}, {"measurement": "MS-type brain lesions", "setting": "multiple sclerosis", "value": "significantly lowered"}, {"measurement": "Relapse rates", "setting": "multiple sclerosis", "value": "trend toward reduced"}]}
